Common to all, as to type: cell-based, human
Test [1] relates to Pak1. As to the kind of experiment: Pak1 kinase activity in cell lysates. As to conditions: Ishikawa cells. The text has this:
(§1) FIGS. 20A–20L—Pak1 activation confers tamoxifen-resistance. FIG. 20A: Pak1 activation promoted ER-transactivation function.

Test [2] deals with Ishikawa and MCF-7/TAMR1 cells. As to the kind of experiment: Growth of Tam-resistant cells (cell number). The method, then: FIGS. 22A–22F—DLC1 deregulation potentiates ligand-induced growth and anchorage-independence. FIG. 22A: DLC1 upregulation potentiates growth stimulation by E2 in a Tam-insensitive manner. MCF-7/DLC1 cells were treated with or without Dox and then with E2 (10^−9M) or Tam (10^−8M) for 5 days, and the cell number was determined. FIG. 22B: DLC1 upregulation promotes anchorage independence. […] FIG. 22C: DLC1 expression supports optimum growth of Tam-resistant cells. Ishikawa and MCF-7/TAMR1 cells were transfected with control or DLC siRNA for 48 h and then treated with or without Tam (10^−8M) for 96 h, and the cell number was determined. FIG. 22D: DLC1-mediated potentiation of ER transactivation depends on the Pak1 status in Ishikawa and MCF-7/TAMR1 cell lines. Ishikawa and MCF-7/TAMR1 cells were transfected with control or Pak1 siRNA for 48 h and then with ERE-luc for 24 h and treated with E2 (10^−9M) for 24 h and ERE-luc activity was measured. FIG. 22E: Pak1 expression level influences the growth of Tam resistant cells. Ishikawa and MCF-7/TAMR1 cells were treated with control or Pak1 siRNA for 48 h and treated with or without Tam (10^−8M) for 4 days, and cell number was determined. FIG. 22F: Co-downregulation of Pak1 and DLC1 in Tam-resistant cells restores Tam-sensitivity. […]

The subject of a further test is DLC1-ER interaction. As to the kind of experiment: Coimmunoprecipitation of DLC1 with ER. On the procedure: In vitro-translated ^35ER were incubated with GST-DLC1, and analyzed by SDS-PAGE and autoradiography. FIG. 13B: Identification of ER domains that interact with DLC1. GST-ER fusion proteins containing different deletion constructs were incubated with in vitro-translated 35S-DLC1 (aa 1-89), and binding was analyzed by GST pull-down assay. FIG. 13C: Mapping of the ER-binding region in DLC1. GST-fusions of various DLC1 deletion constructs were incubated with in vitro-translated ^35S-ER, and binding was analyzed by GST pull-down assay. […] Cell lysates from Ishikawa cells was immunoprecipitated (IP) with anti-ERá mAb and immunoblotted with anti-DLC1 or ER Abs. […] Cell lysates from MCF-7/TAM-sen or Ishikawa cells were treated with Tam (10^−9M) for 24 h, and IP with anti-ERá mAb and immunoblotted with anti-DLC1 or ER Abs. […] MCF-7/DLC1 cells were treated with or without Dox for 24 h and then treated with E2 (10^−9M) or Tam (10^−8M) for 24 h, and IP with anti-ERá mAb and immunoblotted with anti-DLC1 or ER Abs. FIG. 13G: Characterization of MCF-7 cells expressing T7-DLC1-Ser88A mutant under a tetracycline-inducible promoter. […] MCF-7/DLC1 and MCF-7/DLC1-Ser88A cells were treated with or without Dox for 24 h and cell lysates were IP with anti-ERá mAb and blotted with anti-DLC1, ERá and T7 Abs.
To this end, MCF-7 cells expressing a T7-DLC1 mutant in which Ser88 and amino acid 89 were deleted under a tet-inducible promoter (MCF-7/DLC1-1-87 mutant) were generated (FIG. 13G).

For test [3], the system named is Pak1. As to the kind of experiment: Pak1 protein expression by immunoblot.
Description: as §1

The subject of another test is ZR 75 cells. As to the kind of experiment: Boyden chamber migration assay, NIH3T3 conditioned medium. As to conditions: stable ZR75 clones. The method, then: FIGS. 4A–4E—Effect of DLC1/PIN expression on cell motility. FIG. 4A: expression of DLC1/PIN in a number of normal and breast cancer cells analyzed by western blot analysis. FIG. 4B: Expression of T7-DLC1/PIN in stable clones analyzed by western blot analysis. FIG. 4C: Effect DLC1/PIN expression on the motility. Migratory potential of DLC1/PIN wild type or DLC1/PIN^del88-89 mutant expressing clones was measured by Boyden chamber assay using NIH3T3 conditioned medium as chemoattractant. Migrated cells were recorded by microscopy. Representative data of three replicate experiments is shown. FIG. 4D: ZR75/RFP-DLC1 cells which stably expressing wild type red florescent-tagged DLC1/PIN protein (RFPDLC1/PIN) was incubated with FITC-dextran beads. After twenty minutes, cells were fixed with methanol and stained for endogenous Pak1 (blue), RFPDLC1/PIN (red) and FITC-dextran (green). An inset containing the cytoplasmic region was blown up to visualize the colocalization of Pak1 and DLC1/PIN on dextran beads. Merged images are presented in the upper right panel, and colocalization of Pak1 with DLC1/PIN can be visualized as white vesicles due to colocalization of pixels from Pak1 (blue), DLC1/PIN (red) and FITC dextran (green). FIG. 4E: ZR75/RFP-DLC1/PIN were transfected with a dominant negative mutant of Pak1 K299RLL (a myc-tagged kinase dead and GTPase binding defective construct of Pak1). […]

On to `CC/C(=C(\c1ccccc1)c1ccc(OCCN(C)C)cc1)c1ccccc1` [tamoxifen], for which the Pak1 kinase activity result in the test with Pak1 [1] is on record as “upregulated”. The “growth of cells with downregulated DLC” value in test [2] (Tam 96 h) is “further reduced the growth”. Moreover, in test [2] (Tam 4 days), the “growth of cells with downregulated Pak1” value is recorded as “no further significant effect”. The DLC1-ER interaction result is “substantially enhanced” with DLC1-ER interaction (Ishikawa cells, Tam 24 h); “modestly, but reproducibly, increased” with DLC1-ER interaction (MCF-7/DLC1 cells with doxycycline); “not” in the test on DLC1-ER interaction (MCF-7/TAM-Sen cells, Tam 24 h). Further, the Pak1 protein expression entry with Pak1 [3] (Ishikawa cells, long-term treatment) was “increase”. Further, the “levels of Pak1 protein” value with Pak1 [3] (MCF-7 cells) is given as “no effect”.
Regarding “DLC1/PIN^del 88-89: DLC1/PIN mutant in which Ser88 and amino acid 89 were deleted”, the migratory potential entry with ZR 75 cells is on record as “abolished DLC1/PIN mediated increase in the migratory potential”. For the same compound, the “interaction with ER” value in the test with DLC1-ER interaction (MCF-7 cells, tet-inducible T7-tagged mutant) is given as “failed to detect any interaction”.

The values above are taken from patent US7067633B2, “Targeting cellular entry, cell survival, and pathogenicity by dynein light chain 1/PIN in human cells” (Board of Regents, The University of Texas System, priority 2003, dated 2006).
